In paper PMC8037569, “Neuroprotective Effect of Aurantio-Obtusin, a Putative Vasopressin V1A Receptor Antagonist, on Transient Forebrain Ischemia Mice Model” (International Journal of Molecular Sciences, 2021):
Entries after “also recorded” stand apart in the source; their conditions may differ.

Experiments:
[1] = target: T1, hD3 receptor (Homo sapiens, UniProt P35462); experiment: GPCR functional assay: cAMP modulation by HTRF in transfected CHO cells; format: cell-based; details: 100 µM test compound
T1 construct: host or cells: CHO

[2] = target: T2, hNK1R (Homo sapiens, UniProt P25103); experiment: GPCR functional assay: intracellular Ca2+ mobilization in U373MG cells; format: cell-based
T2 construct: Human endogenous (U373MG cells); host or cells: U373MG

[3] = target: T3, hV1AR (Homo sapiens, UniProt P37288); experiment: GPCR functional assay: intracellular Ca2+ mobilization in transfected CHO cells; format: cell-based
T3 construct: host or cells: CHO

[4] = tested on: C57BL/6 mice; experiment: Passive avoidance test after transient forebrain ischemia (BCCAO); format: in vivo, mouse; details: 10 mg/kg, p.o., once daily, 1 h to 7 days after BCCAO; for Latency time in test trial of passive avoidance test: vs BCCAO group, p < 0.05
Description: (§1) Male C57BL/6 mice (22–26 g, 7 weeks) were purchased from the Orient Co. Ltd., a branch of Charles River Laboratories (Seoul, Korea), and kept in the University Animal Care Unit for 1 week prior to the experiments. The animals were housed five per cage, allowed access to water and food ad libitum; the environment was maintained at a constant temperature (23 ± 1 °C) and humidity (60 ± 10%) under a 12-h light/dark cycle (the lights were on from 07:30 to 19:30 h). Forty mice were divided equally into four groups (sham + vehicle, n = 10; sham + drug, n = 10; bilateral common carotid artery occluded ischemia + vehicle, n = 10; bilateral common carotid artery occluded ischemia + drug, n = 10) for experiment. The treatment and maintenance of the animals were carried out in accordance with the Animal Care and Use Guidelines of Dong-A University, Korea. All in vivo experiments were performed according to the protocols approved by the Institutional Animal Care and Use Committee of Dong-A University (approved protocol numbers: DIACUC-approved-17-20) and were in accordance with the National Institutes of Health guidelines.
C57BL/6 mice were anesthetized with 2.0% isoflurane and 70% nitrous oxide in oxygen and subjected to transient forebrain ischemia. The transient forebrain ischemia was induced by bilateral common carotid artery occlusion (BCCAO) with aneurysm clips for 20 min, and the circulation was restored by removing the clips. Mice that received the same surgical operation without carotid artery clipping served as sham-operated controls. During the surgical procedure, the rectal temperature was maintained at 37 ± 0.5 °C with a heating pad (Biomed S.L., Barcelona, Spain). The regional cerebral blood flow (rCBF) was monitored using laser Doppler flowmetry (Perimed, PF5010, JarFalla, Sweden). […]
Passive avoidance test was conducted 1 h after the last drug administration. […] For the retention trial, the mouse was again placed in the light compartment and the time required to enter the dark compartment was recorded.

[5] = tested on: C57BL/6 mice; experiment: Nissl staining, severity of neuronal damage after transient forebrain ischemia (BCCAO); format: in vivo, mouse; details: 10 mg/kg, p.o., vs BCCAO group, score 0 to 3, n = 6/group
Description: as §1
C57BL/6 mice were anesthetized with 2.0% isoflurane and 70% nitrous oxide in oxygen and subjected to transient forebrain ischemia. The transient forebrain ischemia was induced by bilateral common carotid artery occlusion (BCCAO) with aneurysm clips for 20 min, and the circulation was restored by removing the clips. Mice that received the same surgical operation without carotid artery clipping served as sham-operated controls. During the surgical procedure, the rectal temperature was maintained at 37 ± 0.5 °C with a heating pad (Biomed S.L., Barcelona, Spain). The regional cerebral blood flow (rCBF) was monitored using laser Doppler flowmetry (Perimed, PF5010, JarFalla, Sweden). […] After reperfusion, the animals were placed in a warm incubator (32–33 °C) and returned to their home cages. Aurantio-obtusin, which was dissolved in 10% Tween 80 solution, was administered from 1 h to 7 days after BCCAO (10 mg/kg, p.o., once daily).
One day after the test trial of passive avoidance test, mice were anesthetized with Zoletil 50® (10 mg/kg, i.m.) and then perfused transcardially with a 100 mM phosphate buffer (pH 7.4) followed by ice-cold 4% paraformaldehyde. The brains of the mice were removed and post-fixed in a phosphate buffer (50 mM, pH 7.4) containing 4% paraformaldehyde overnight, then immersed in a 30% sucrose solution (in 50 mM phosphate-buffered saline, PBS), and stored at 4 °C until sectioned. The frozen brains were coronally sectioned on a cryostat at 30 μm and then stored in a storage solution (30% ethylene glycol, 30% glycerin, and 20 mM phosphate buffer) at 4 °C. Hippocampal sections were collected based on the mouse brain atlas.
After the sections were mounted onto gelatin-coated slides, they were stained with 0.5% cresyl violet, dehydrated through graded alcohols (70, 80, 90, and 100% × 2), placed in xylene, and covered with a coverslip after the addition of Histomount media. The number of cells in selected regions (medial CA1, mCA1; dorsal CA1, dCA1; CA2; cortex) were determined using a computerized image analysis system (Leica Microsystems AG, Wetzlar, Germany). The cells were counted in six sections by every eight sections interval (total 48 sections) per animal by a person blind to the treatment group, and the average cell count per section was computed. The degree of damage by the Nissl staining after ischemia was semiquantitatively scored from 0 to 3 (0, normal; 1, <30% of the neurons were irreversibly damaged; 2, 30–60% of the neurons were irreversibly damaged; 3, 60–100% of the neurons were irreversibly damaged).

[6] = tested on: angiotensin-converting enzyme (ACE); parameters: method as in PMID 18803227; details: cited from earlier work
[7] = tested on: rat; parameters: method as in PMID 31547563; details: cited from earlier work

T3 sequence (P37288 whole entry): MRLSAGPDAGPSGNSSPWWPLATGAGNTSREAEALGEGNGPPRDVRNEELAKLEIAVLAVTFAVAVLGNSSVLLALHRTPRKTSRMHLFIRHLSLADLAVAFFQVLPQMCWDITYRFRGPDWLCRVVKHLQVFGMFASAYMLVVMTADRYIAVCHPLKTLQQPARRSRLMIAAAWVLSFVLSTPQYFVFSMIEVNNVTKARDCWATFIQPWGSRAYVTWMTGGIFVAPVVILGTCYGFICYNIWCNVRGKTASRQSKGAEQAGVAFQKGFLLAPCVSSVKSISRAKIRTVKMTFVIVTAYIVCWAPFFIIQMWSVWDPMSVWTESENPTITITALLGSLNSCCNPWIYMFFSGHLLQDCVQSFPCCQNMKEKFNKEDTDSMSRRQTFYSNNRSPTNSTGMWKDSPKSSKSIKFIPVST
T1 sequence (P35462 whole entry): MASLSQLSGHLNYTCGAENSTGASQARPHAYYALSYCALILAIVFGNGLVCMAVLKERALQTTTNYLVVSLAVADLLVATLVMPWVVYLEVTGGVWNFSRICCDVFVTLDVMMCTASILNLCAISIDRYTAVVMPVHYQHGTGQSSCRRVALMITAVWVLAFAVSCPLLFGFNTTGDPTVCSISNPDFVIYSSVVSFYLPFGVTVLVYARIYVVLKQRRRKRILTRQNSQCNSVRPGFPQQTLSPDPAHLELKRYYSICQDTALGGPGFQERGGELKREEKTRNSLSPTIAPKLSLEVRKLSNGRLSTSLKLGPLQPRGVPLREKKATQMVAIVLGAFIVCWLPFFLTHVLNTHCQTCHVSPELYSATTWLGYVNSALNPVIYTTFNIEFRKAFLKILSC
T2 sequence (P25103 whole entry): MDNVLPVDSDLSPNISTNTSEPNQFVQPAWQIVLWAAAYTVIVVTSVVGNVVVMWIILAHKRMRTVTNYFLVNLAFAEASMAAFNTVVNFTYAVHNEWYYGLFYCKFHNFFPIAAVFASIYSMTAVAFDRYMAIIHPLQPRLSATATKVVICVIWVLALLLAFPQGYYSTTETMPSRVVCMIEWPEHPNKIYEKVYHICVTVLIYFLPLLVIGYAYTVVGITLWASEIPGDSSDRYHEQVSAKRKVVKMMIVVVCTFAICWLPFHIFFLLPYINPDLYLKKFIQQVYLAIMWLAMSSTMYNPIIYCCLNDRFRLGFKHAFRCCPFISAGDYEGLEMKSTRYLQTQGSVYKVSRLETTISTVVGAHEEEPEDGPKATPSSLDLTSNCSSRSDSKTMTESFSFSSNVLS

Structure (SMILES): COc1c(O)cc2c(c1O)C(=O)c1c(cc(C)c(O)c1OC)C2=O [Aurantio-obtusin, 1,3,7-trihydroxy-2,8-dimethoxy-6-methylanthracene-9,10-dione]
- % Stimulation (agonist effect) of control agonist response, D3 (h) ([1]; control response to 300 nM dopamine): 33.00 ± 1.84%
- inhibition at 100 µM ([1]; CHO, agonist response of 10 nM dopamine, read-out: % Inhibition (antagonist effect) of control agonist response, D3 (h) (converted)): -2.3%
- % Stimulation (agonist effect) of control agonist response, NK1 (h) ([2]; 100 µM test compound, control response to 30 nM [Sar9, Met(O2)11]-SP): −6.40 ± 0.00%
- inhibition at 100 µM ([2]; U373 MG, read-out: % Inhibition (antagonist effect) of control agonist response, NK1 (h) (converted)): 47.6%
- % Stimulation (agonist effect) of control agonist response, V1A (h) ([3]; 100 µM test compound, control response to 1 μM AVP): −33.20 ± 2.69%
- inhibition at 100 µM ([3]; CHO, 100 µM test compound, control response to 10 nM AVP, read-out: % Inhibition (antagonist effect) of control agonist response, V1A (h) (converted)): 71.8%
- IC50 ([3]; concentrations up to 100 µM, control response to 10 nM AVP, read-out: V1AR antagonist effect IC50): 67.7 ± 2.41 µM
- Latency time in training trial of passive avoidance test ([4]; n = 8/group): no significant differences
- Latency time in test trial of passive avoidance test [4]: significantly attenuated the reduction of latency time
- Latency time in test trial of passive avoidance test ([4]; listed as aurantio-obtusin): attenuated the latency time; also recorded: attenuated that reduction significantly
- Severity of neuronal damage in CA2 [5]: not in CA2 region
- Severity of neuronal damage in cortex [5]: significantly reduced the severity of damage
- Severity of neuronal damage in dCA1 [5]: significantly reduced the severity of damage
- Severity of neuronal damage in mCA1 [5]: significantly reduced the severity of damage
- Severity of neuronal damage in cortex ([5]; listed as Aurnatio-obtusin): significantly reduced the severity
- Severity of neuronal damage in dCA1 ([5]; listed as Aurnatio-obtusin): significantly reduced the severity
- Severity of neuronal damage in mCA1 ([5]; listed as Aurnatio-obtusin): significantly reduced the severity
- Inhibition of ACE activity [6]: no activity
- Dose causing hepatoxicity [7]: > 40 mg/kg
